Data published in ChEMBL document CHEMBL5321295, “Targeted Degradation of Alpha-Synuclein by Autophagosome-Anchoring Chimera Peptides” (J Med Chem, 2023).
Calls of active or inactive are those of the source. The calls are words filed in the database; no cut-off is given here. Residues, ends and D or L forms follow the SMILES beside them. *: point of attachment. RhodamineB = CCN(CC)c1ccc2c(-c3ccccc3C(=O)*)c3ccc(=[N+](CC)CC)cc-3oc2c1

Experiments:
[1] = target: T1, Alpha-synuclein (Homo sapiens, UniProt P37840); test: Binding affinity to biotinylated recombinant alpha-synuclein (unknown origin) assessed as dissociation constant by BLI assay
[2] = target: T2, Microtubule-associated protein 1 light chain 3 beta (Homo sapiens, UniProt Q9GZQ8); test: Binding affinity to biotinylated recombinant LC3B (unknown origin) assessed as dissociation constant by BLI assay
[3] = Chemical stability of compound in cell culture medium at 50 uM measured for 24 hrs by HPLC analysis; format: physicochemical
[4] = tested on: HEK-293T; test: Cytotoxicity against wild-type HEK293T cells assessed as cell viability upto 200 uM incubated for 24 hrs by CCK8 assay; format: toxicity, cell-based; conditions: human
[5] = tested on: SH-SY5Y; test: Cytotoxicity against wild-type human SH-SY5Y cells assessed as cell viability upto 200 uM incubated for 24 hrs by CCK8 assay; format: functional, cell-based
[6] = target: T1, Alpha-synuclein; test: Induction of alpha-synuclein (unknown origin) degradation overexpressed in HEK293T cells infected with adenovirus expressing mCherry-EGFP-LC3B incubated for 24 hrs by immunoblot analysis; format: cell-based; conditions: for Activity: dose <= 200.0 µM
[7] = target: T1, Alpha-synuclein; test: Induction of alpha-synuclein (unknown origin) degradation overexpressed in HEK293T cells at 50 to 100 uM incubated for 24 hrs by immunoblot analysis; format: cell-based; conditions: dose 50-100 µM
[8] = Drug localization in HEK293T cells assessed as colocalization of lysosomes at 50 uM incubated for 2 hrs by LyTG staining based confocal laser scanning microscopy; format: ADME, cell-based; conditions: human, hek-293t
[9] = Drug uptake in wild-type HEK293T cells assessed as drug penetration upto 50 uM incubated for 2 hrs by confocal laser scanning microscopy; format: ADME, cell-based; conditions: human, hek-293t
[10] = Drug uptake in wild-type HEK293T cells assessed as drug penetration upto 100 uM incubated for 2 hrs by flow cytometry; format: ADME, cell-based; conditions: human, hek-293t
[11] = Drug uptake in wild-type HEK293T cells assessed as drug penetration at 50 uM incubated upto 4 hrs by flow cytometry; format: ADME, cell-based; conditions: human, hek-293t
[12] = target: T2, Microtubule-associated protein 1 light chain 3 beta; test: Binding affinity to EGFP-fused LC3B (unknown origin) overexpressed in HEK293T cells at 50 uM incubated for 2 hrs by confocal laser scanning microscopy; format: cell-based
[13] = target: T1, Alpha-synuclein; test: Induction of EGFP-fused alpha-synuclein (unknown origin) degradation overexpressed in HEK293T cells at 50 uM incubated for 2 hrs by confocal laser scanning microscopy; format: cell-based

SMILES	Stability [3]	Activity [4]	Activity [5]	DC50 [6] [µM]	Activity [6]	further results
CC[C@H](C)[C@H](NC(=O)[C@H](Cc1ccc(O)cc1)NC(=O)[C@H](CC(=O)O)NC(=O)[C@H](CCC(=O)O)NC(=O)[C@H](CO)NC(=O)[C@H](CO)NC(=O)[C@H](C)NC(=O)[C@H](CO)NC(=O)[C@H](CO)NC(=O)CNC(=O)[C@H](CO)NC(=O)CNC(=O)[C@H](CCCNC(=N)N)NC(=O)[C@@H](NC(=O)[C@H](CCCCN)NC(=O)[C@H](CO)NC(=O)CNC(=O)[C@@H](NC(=O)[C@H](Cc1ccc(O)cc1)NC(=O)[C@H](CC(C)C)NC(=O)[C@@H](NC(=O)CN)C(C)C)C(C)C)[C@@H](C)O)C(=O)N[C@H](C(=O)N[C@H](C(=O)N[C@@H](CC(C)C)C(=O)N1CCC[C@H]1C(=O)N[C@@H](Cc1ccc(O)cc1)C(=O)NCC(=O)N[C@@H](CCCNC(=N)N)C(=O)N[C@@H](CCCCN)C(=O)N[C@@H](CCCCN)C(=O)N[C@@H](CCCNC(=N)N)C(=O)N[C@@H](CCCNC(=N)N)C(=O)N[C@@H](CCC(N)=O)C(=O)N[C@@H](CCCNC(=N)N)C(=O)N[C@@H](CCCNC(=N)N)C(=O)N[C@@H](CCCNC(=N)N)C(=O)O)[C@@H](C)CC)[C@@H](C)CC (H-GVLYVGSKTRGSGSSASSEDYIIILPYGRKKRRQRRR-OH)	Stable	Non-Toxic	inactive	73.8	Dose-Dependent Effect	Kd [1]: 25.3 µM; Kd [2]: 15.2 µM
CC(C)C[C@H](NC(=O)[C@@H](NC(=O)CN)C(C)C)C(=O)N[C@@H](Cc1ccc(O)cc1)C(=O)N[C@H](C(=O)NCC(=O)N[C@@H](CO)C(=O)N[C@@H](CCCCN)C(=O)N[C@H](C(=O)N[C@@H](CCCNC(=N)N)C(=O)NCC(=O)N[C@@H](CO)C(=O)NCC(=O)N[C@@H](CO)C(=O)N[C@@H](CO)C(=O)NCC(=O)NCC(=O)N[C@@H](CC(=O)O)C(=O)N[C@@H](CC(=O)O)C(=O)N[C@@H](CC(=O)O)C(=O)N[C@@H](Cc1c[nH]c2ccccc12)C(=O)N[C@H](C(=O)N[C@@H](Cc1c[nH]cn1)C(=O)N[C@H](C(=O)N[C@@H](CO)C(=O)N[C@@H](CO)C(=O)N[C@@H](Cc1ccc(O)cc1)C(=O)NCC(=O)N[C@@H](CCCNC(=N)N)C(=O)N[C@@H](CCCCN)C(=O)N[C@@H](CCCCN)C(=O)N[C@@H](CCCNC(=N)N)C(=O)N[C@@H](CCCNC(=N)N)C(=O)N[C@@H](CCC(N)=O)C(=O)N[C@@H](CCCNC(=N)N)C(=O)N[C@@H](CCCNC(=N)N)C(=O)N[C@@H](CCCNC(=N)N)C(=O)O)C(C)C)[C@@H](C)O)[C@@H](C)O)C(C)C (H-GVLYVGSKTRGSGSSGGDDDWTHVSSYGRKKRRQRRR-OH)						Activity [7]: inactive
CCN(CC)c1ccc2c(-c3ccccc3C(=O)NCC(=O)N[C@H](C(=O)N[C@@H](CC(C)C)C(=O)N[C@@H](Cc3ccc(O)cc3)C(=O)N[C@H](C(=O)NCC(=O)N[C@@H](CO)C(=O)N[C@@H](CCCCN)C(=O)N[C@H](C(=O)N[C@@H](CCCNC(=N)N)C(=O)NCC(=O)N[C@@H](CO)C(=O)NCC(=O)N[C@@H](CO)C(=O)N[C@@H](CO)C(=O)NCC(=O)NCC(=O)N[C@@H](CC(=O)O)C(=O)N[C@@H](CC(=O)O)C(=O)N[C@@H](CC(=O)O)C(=O)N[C@@H](Cc3c[nH]c4ccccc34)C(=O)N[C@H](C(=O)N[C@@H](Cc3c[nH]cn3)C(=O)N[C@@H](CC(C)C)C(=O)N[C@@H](CO)C(=O)N[C@@H](CO)C(=O)N[C@@H](Cc3ccc(O)cc3)C(=O)NCC(=O)N[C@@H](CCCNC(=N)N)C(=O)N[C@@H](CCCCN)C(=O)N[C@@H](CCCCN)C(=O)N[C@@H](CCCNC(=N)N)C(=O)N[C@@H](CCCNC(=N)N)C(=O)N[C@@H](CCC(N)=O)C(=O)N[C@@H](CCCNC(=N)N)C(=O)N[C@@H](CCCNC(=N)N)C(=O)N[C@@H](CCCNC(=N)N)C(=O)O)[C@@H](C)O)[C@@H](C)O)C(C)C)C(C)C)c3ccc(=[N+](CC)CC)cc-3oc2c1.[Cl-] (RhodamineB-GVLYVGSKTRGSGSSGGDDDWTHLSSYGRKKRRQRRR-OH)						Drug uptake [8]: Active; Drug uptake [9]: Active; Drug uptake [10]: Active; Drug uptake [11]: Active; Activity [12]: Active; Activity [13]: Active
CCN(CC)c1ccc2c(-c3ccccc3C(=O)NCC(=O)N[C@H](C(=O)N[C@@H](CC(C)C)C(=O)N[C@@H](Cc3ccc(O)cc3)C(=O)N[C@H](C(=O)NCC(=O)N[C@@H](CO)C(=O)N[C@@H](CCCCN)C(=O)N[C@H](C(=O)N[C@@H](CCCNC(=N)N)C(=O)NCC(=O)N[C@@H](CO)C(=O)NCC(=O)N[C@@H](CO)C(=O)N[C@@H](CO)C(=O)NCC(=O)NCC(=O)N[C@@H](CC(=O)O)C(=O)N[C@@H](CC(=O)O)C(=O)N[C@@H](CC(=O)O)C(=O)N[C@@H](Cc3c[nH]c4ccccc34)C(=O)N[C@H](C(=O)N[C@@H](Cc3c[nH]cn3)C(=O)N[C@@H](CC(C)C)C(=O)N[C@@H](CO)C(=O)N[C@@H](CO)C(=O)N[C@@H](CCCNC(=N)N)C(=O)N[C@@H](CCCNC(=N)N)C(=O)N[C@@H](CCCNC(=N)N)C(=O)N[C@@H](CCCNC(=N)N)C(=O)N[C@@H](CCCNC(=N)N)C(=O)N[C@@H](CCCNC(=N)N)C(=O)N[C@@H](CCCNC(=N)N)C(=O)O)[C@@H](C)O)[C@@H](C)O)C(C)C)C(C)C)c3ccc(=[N+](CC)CC)cc-3oc2c1.[Cl-] (RhodamineB-GVLYVGSKTRGSGSSGGDDDWTHLSSRRRRRRR-OH)						Drug uptake [9]: Active; Drug uptake [10]: Active
CC(C)C[C@H](NC(=O)CNC(=O)[C@H](Cc1ccc(O)cc1)NC(=O)[C@@H](N)C(C)C)C(=O)N[C@@H](CCCNC(=N)N)C(=O)NCC(=O)N[C@H](C(=O)N[C@@H](CO)C(=O)N[C@H](C(=O)N[C@@H](CCCCN)C(=O)NCC(=O)N[C@@H](CO)C(=O)NCC(=O)N[C@@H](CO)C(=O)N[C@@H](CO)C(=O)NCC(=O)NCC(=O)N[C@@H](CC(=O)O)C(=O)N[C@@H](CC(=O)O)C(=O)N[C@@H](CC(=O)O)C(=O)N[C@@H](Cc1c[nH]c2ccccc12)C(=O)N[C@H](C(=O)N[C@@H](Cc1c[nH]cn1)C(=O)N[C@@H](CC(C)C)C(=O)N[C@@H](CO)C(=O)N[C@@H](CO)C(=O)N[C@@H](Cc1ccc(O)cc1)C(=O)NCC(=O)N[C@@H](CCCNC(=N)N)C(=O)N[C@@H](CCCCN)C(=O)N[C@@H](CCCCN)C(=O)N[C@@H](CCCNC(=N)N)C(=O)N[C@@H](CCCNC(=N)N)C(=O)N[C@@H](CCC(N)=O)C(=O)N[C@@H](CCCNC(=N)N)C(=O)N[C@@H](CCCNC(=N)N)C(=O)N[C@@H](CCCNC(=N)N)C(=O)O)[C@@H](C)O)[C@@H](C)O)C(C)C (H-VYGLRGVSTKGSGSSGGDDDWTHLSSYGRKKRRQRRR-OH)						Activity [7]: inactive
CC[C@H](C)[C@H](NC(=O)[C@H](CCC(=O)O)NC(=O)[C@@H](NC(=O)[C@H](Cc1ccccc1)NC(=O)[C@H](CO)NC(=O)[C@H](CC(=O)O)NC(=O)[C@H](CCC(=O)O)NC(=O)[C@H](CO)NC(=O)[C@H](CO)NC(=O)CNC(=O)[C@H](CO)NC(=O)CNC(=O)[C@H](CO)NC(=O)CNC(=O)[C@H](CCCNC(=N)N)NC(=O)[C@@H](NC(=O)[C@H](CCCCN)NC(=O)[C@H](CO)NC(=O)CNC(=O)[C@@H](NC(=O)[C@H](Cc1ccc(O)cc1)NC(=O)[C@H](CC(C)C)NC(=O)[C@@H](NC(=O)CN)C(C)C)C(C)C)[C@@H](C)O)C(C)C)C(=O)N[C@@H](CCCNC(=N)N)C(=O)N[C@@H](CCSC)C(=O)N[C@@H](Cc1ccc(O)cc1)C(=O)NCC(=O)N[C@@H](CCCNC(=N)N)C(=O)N[C@@H](CCCCN)C(=O)N[C@@H](CCCCN)C(=O)N[C@@H](CCCNC(=N)N)C(=O)N[C@@H](CCCNC(=N)N)C(=O)N[C@@H](CCC(N)=O)C(=O)N[C@@H](CCCNC(=N)N)C(=O)N[C@@H](CCCNC(=N)N)C(=O)N[C@@H](CCCNC(=N)N)C(=O)O (H-GVLYVGSKTRGSGSGSSEDSFVEIRMYGRKKRRQRRR-OH)	Stable	Non-Toxic	inactive	140	Dose-Dependent Effect	Kd [1]: 41.6 µM; Kd [2]: 17.2 µM
CC(C)C[C@H](NC(=O)[C@H](Cc1c[nH]cn1)NC(=O)[C@@H](NC(=O)[C@H](Cc1c[nH]c2ccccc12)NC(=O)[C@H](CC(=O)O)NC(=O)[C@H](CC(=O)O)NC(=O)[C@H](CC(=O)O)NC(=O)CNC(=O)CNC(=O)[C@H](CO)NC(=O)[C@H](CO)NC(=O)CNC(=O)[C@H](CO)NC(=O)CNC(=O)[C@H](CCCNC(=N)N)NC(=O)[C@@H](NC(=O)[C@H](CCCCN)NC(=O)[C@H](CO)NC(=O)CNC(=O)[C@@H](NC(=O)[C@H](Cc1ccc(O)cc1)NC(=O)[C@H](CC(C)C)NC(=O)[C@@H](NC(=O)CN)C(C)C)C(C)C)[C@@H](C)O)[C@@H](C)O)C(=O)N[C@@H](CO)C(=O)N[C@@H](CO)C(=O)N[C@@H](CCCNC(=N)N)C(=O)N[C@@H](CCCNC(=N)N)C(=O)N[C@@H](CCCNC(=N)N)C(=O)N[C@@H](CCCNC(=N)N)C(=O)N[C@@H](CCCNC(=N)N)C(=O)N[C@@H](CCCNC(=N)N)C(=O)N[C@@H](CCCNC(=N)N)C(=O)O (H-GVLYVGSKTRGSGSSGGDDDWTHLSSRRRRRRR-OH)	Stable	Non-Toxic	inactive	56.8	Dose-Dependent Effect	
